# Experiments:
# [1] = tested on: HIV protease; assay: (§1) Therapeutic index for HIV protease was determined; conditions: read-out: Therapeutic index
# [2] = tested on: Human immunodeficiency virus 1; assay: (§2) Tested for antiviral activity against HIV-III B strain infected human lymphocyte derived CEM cells; assay type: functional, organism-based, CCRF-CEM
# [3] = biological target: T1, Human immunodeficiency virus type 1 protease (Human immunodeficiency virus 1, UniProt Q72874); assay: In vitro binding affinity against HIV protease at pH 6.2.
# [4] = tested on: CCRF-CEM; assay: Tested for the cytotoxic effect in uninfected human lymphocyte derived CEM cells.; assay type: functional; conditions: read-out: TC50 (the source's name)
# [5] = Therapeutic index was determined; conditions: read-out: TI
# [6] = as §1
# [7] = biological target: T1, Human immunodeficiency virus type 1 protease; assay: Binding affinity towards HIV protease was determined
# [8] = biological target: T1, Human immunodeficiency virus type 1 protease; assay: In vitro binding affinity to HIV protease was determined at pH 4.7
# [9] = biological target: T1, Human immunodeficiency virus type 1 protease; assay: In vitro binding affinity against HIV protease at pH 6.2 was determined
# [10] = Area under the curve for the compound was obtained when tested in dog; assay type: ADME, organism-based, Canis lupus familiaris; conditions: in vivo
# [11] = Maximum concentration obtained in dog plasma was determined; assay type: ADME, organism-based, Canis lupus familiaris
# [12] = Half life in dog plasma was determined at dose 10 mg/kg; assay type: ADME, organism-based, Canis lupus familiaris; design: dose 10 mg/kg
# [13] = tested on: CCRF-CEM; assay: as §2; assay type: functional
# [14] = Maximum concentration obtained in mouse plasma was determined; assay type: ADME, organism-based
# [15] = Bioavailability was obtained by the comparison of AUC of subcutaneous dosing and AUC of oral dosing in mouse; assay type: ADME, organism-based; conditions: in vivo, read-out: Bioavailabiility
# [16] = Area under the curve for the compound was obtained when tested in mouse; assay type: ADME, organism-based; conditions: in vivo
# [17] = Bioavailability was obtained by the comparison of AUC of intravenous dosing and AUC of oral dosing in dog; assay type: ADME, organism-based, Canis lupus familiaris; conditions: in vivo, read-out: Bioavailabiility
# [18] = species on record: Mus musculus; assay: Time taken for EC90 was determined when tested in mouse; assay type: ADME, organism-based; conditions: in vivo
# [19] = Half life in mouse plasma was determined at dose 25 mg/kg; assay type: ADME, organism-based; design: dose 25 mg/kg
# [20] = species on record: Canis familiaris; assay: Time taken for EC90 was determined when tested in dog; assay type: ADME, organism-based, Canis lupus familiaris; conditions: in vivo
# [21] = tested on: Mus musculus; assay: Time taken for EC90 was determined when tested in mouse at dose 25 mg/kg; assay type: ADME, organism-based; design: dose 25 mg/kg; conditions: in vivo
# [22] = Bioavailability was obtained by the comparison of AUC of subcutaneous dosing and AUC of oral dosing in mouse at dose 25 mg/kg; assay type: ADME, organism-based; conditions: in vivo, read-out: Bioavailabiility
# [23] = Area under the curve for the compound is obtained at dose 25 mg/kg; assay type: ADME, organism-based; design: dose 25 mg/kg; conditions: mouse, in vivo
# [24] = Half life in mouse plasma at dose 25 mg/kg; assay type: ADME, organism-based; design: dose 25 mg/kg
# [25] = Maximum concentration obtained in mouse plasma was determined at dose 25 mg/kg; assay type: ADME, organism-based; design: dose 25 mg/kg
# [26] = biological target: Human immunodeficiency virus type 1 protease (Human immunodeficiency virus 1) (UniProt Q72874); assay: In vitro binding affinity to HIV protease was determined
# [27] = Human immunodeficiency virus 1, CCRF-CEM
structure (smiles),measurement,setting,value
Cc1cc(SC2=C(O)OC(CCc3ccccc3)(c3ccccc3)CC2=O)c(C(C)(C)C)cc1N (stereo not given),selectivity ratio,[1],< 1
same,EC50,[2]; [27],> 64 µM
same,IC50,[3],0.011 µM
same,CC50,[4],64 µM
Cc1cc(SC2=C(O)OC(CCc3ccc(O)cc3)(CC(C)C)CC2=O)c(C(C)(C)C)cc1N (stereo not given),selectivity ratio,[1],8
same,EC50,[2]; [27],8.1 µM
same,IC50,[3],0.0135 µM
same,CC50,[4],62 µM
Cc1cc(SC2=C(O)OC(CCc3ccccc3)(C(C)C)CC2=O)c(C(C)(C)C)cc1N (stereo not given),selectivity ratio,[1],36
same,EC50,[2]; [27],1.9 µM
same,IC50,[3],0.0033 µM
same,CC50,[4],69 µM
Cc1cc(SC2=C(O)OC(CCc3ccc(O)cc3)(C(C)C)CC2=O)c(C(C)(C)C)cc1NC(=O)c1ccc(C#N)cc1 (stereo not given),selectivity ratio,[1],16
same,EC50,[2]; [27],4.1 µM
same,IC50,[3],0.005 µM
same,CC50,[4],66 µM
Cc1cc(SC2=C(O)OC(CCc3ccc(O)cc3)(C(C)C)CC2=O)c(C(C)(C)C)cc1N(C)C (stereo not given),selectivity ratio,[1],36
same,EC50,[2]; [27],1.9 µM
same,IC50,[3],0.011 µM
same,CC50,[4],68 µM
Cc1cc(SC2=C(O)OC(CCc3ccc(O)cc3)(C(C)C)CC2=O)c(C(C)(C)C)cc1NC(=O)c1ccncc1 (stereo not given),selectivity ratio,[1],> 20
same,EC50,[2]; [27],5.1 µM
same,IC50,[3],0.00508 µM
same,CC50,[4],> 100 µM
Cc1cc(SC2=C(O)OC(CCc3ccc(O)cc3)(C3CCCC3)CC2=O)c(C(C)(C)C)cc1N (stereo not given),selectivity ratio,[1],22
same,EC50,[2]; [27],3.8 µM
same,IC50,[3],0.006 µM
same,CC50,[4],82 µM
CCCCCC1(CCc2ccc(O)cc2)CC(=O)C(Sc2cc(C)c(N)cc2C(C)(C)C)=C(O)O1 (stereo not given),selectivity ratio,[1],< 1
same,EC50,[2]; [27],> 24 µM
same,IC50,[3],0.0077 µM
same,CC50,[4],24 µM
Cc1cc(SC2=C(O)OC(CCc3ccc(O)cc3)(C(C)C)CC2=O)c(C(C)(C)C)cc1NC(=O)c1ccccn1 (stereo not given),selectivity ratio,[1],44
same,EC50,[2]; [27],1.5 µM
same,IC50,[3],0.0061 µM
same,CC50,[4],66 µM
Cc1cc(SC2=C(O)OC(CCc3ccccc3)(C(C)C)CC2=O)c(C(C)(C)C)cc1NC(=O)c1ccc(C#N)cc1 (stereo not given),selectivity ratio,[1],6
same,EC50,[2]; [27],8.3 µM
same,IC50,[3],0.014 µM
same,CC50,[4],46 µM
Cc1cc(SC2=C(O)OC(CCc3ccc(O)cc3)(C3CC3)CC2=O)c(C(C)(C)C)cc1N (stereo not given),selectivity ratio,[1],20
same,EC50,[2]; [27],2.5 µM
same,IC50,[3],0.0041 µM
same,CC50,[4],49 µM
Cc1cc(SC2=C(O)OC(CCc3ccc(O)cc3)(C3CCCCC3)CC2=O)c(C(C)(C)C)cc1N (stereo not given),selectivity ratio,[1],7
same,EC50,[2]; [27],10 µM
same,IC50,[3],0.02 µM
same,CC50,[4],66 µM
CC(=O)Nc1cc(C(C)(C)C)c(SC2=C(O)OC(CCc3ccc(O)cc3)(C(C)C)CC2=O)cc1C (stereo not given),selectivity ratio,[1],> 21
same,EC50,[2]; [27],4.8 µM
same,IC50,[3],0.0034 µM
same,CC50,[4],> 100 µM
Cc1cc(SC2=C(O)OC(CCc3ccc(O)cc3)(C(C)C)CC2=O)c(C(C)(C)C)cc1NC(=O)OC(C)(C)C (stereo not given),IC50,[3],0.091 µM
Cc1cc(SC2=C(O)OC(CCc3ccc(N)cc3)(C(C)C)CC2=O)c(C(C)(C)C)cc1N (stereo not given),selectivity ratio,[1],33
same,EC50,[2]; [27],0.9 µM
same,IC50,[3],0.0075 µM
same,CC50,[4],30 µM
Cc1cc(SC2=C(O)OC(CCc3ccc(O)cc3)(C(C)C)CC2=O)c(C(C)(C)C)cc1NC(=O)c1cccnc1 (stereo not given),selectivity ratio,[1],> 20
same,EC50,[2]; [27],4.9 µM
same,IC50,[3],0.0051 µM
same,CC50,[4],> 100 µM
Cc1cc(SC2=C(O)OC(CCc3ccc(O)cc3)(C(C)C)CC2=O)c(C(C)(C)C)cc1NC(=O)c1ccc(C(F)(F)F)cc1 (stereo not given),selectivity ratio,[1],5
same,EC50,[2]; [27],5 µM
same,IC50,[3],0.0121 µM
same,CC50,[4],27 µM
Cc1cc(SC2=C(O)OC(CCc3ccc(O)cc3)(C(C)C)CC2=O)c(C(C)(C)C)cc1NC(=O)c1cccc(C#N)c1 (stereo not given),selectivity ratio,[1],5
same,EC50,[2]; [27],14 µM
same,IC50,[3],0.015 µM
same,CC50,[4],66 µM
Cc1cc(SC2=C(O)O[C@](CCc3ccc(N)cc3)(C(C)C)CC2=O)c(C(C)(C)C)cc1CO,selectivity ratio,[5],1050
CCCC1(CCc2ccc(O)cc2)CC(=O)C(Sc2cc(C)c(N)cc2C(C)(C)C)=C(O)O1 (stereo not given),selectivity ratio,[1],15
same,EC50,[2]; [27],4.1 µM
same,IC50,[3],0.0038 µM
same,CC50,[4],62 µM
CC(=O)Nc1cc(C(C)(C)C)c(SC2=C(O)OC(CCc3ccccc3)(C(C)C)CC2=O)cc1C (stereo not given),selectivity ratio,[1],46
same,EC50,[2]; [27],1.8 µM
same,IC50,[3],0.0035 µM
same,CC50,[4],83 µM
Cc1cc(SC2=C(O)O[C@](CCc3ccc(O)cc3)(C(C)C)CC2=O)c(C(C)(C)C)cc1N (stereo in doubt; 15R),Therapeutic index,[6],2
same,EC50,[2]; ccrf-cem,91 µM
same,Ki,[7],13 nM
Cc1ccc(C(C)(C)C)c(SC2=C(O)O[C@](CCc3ccccc3)(c3ccccc3)CC2=O)c1,IC50,[8],0.01 µM
Cc1cc(SC2=C(O)OC(CCc3ccc(O)cc3)(C(C)C)CC2=O)c(C(C)(C)C)cc1NC(=O)CC(C)(C)C (stereo not given),selectivity ratio,[1],4
same,EC50,[2]; [27],16 µM
same,IC50,[3],0.06 µM
same,CC50,[4],67 µM
Cc1cc(SC2=C(O)O[C@](CCc3ccc(O)cc3)(C(C)C)CC2=O)c(C(C)(C)C)cc1CO,EC50,[2]; [27],0.46 µM
same,Ki,[9],0.09 nM
same,selectivity ratio,[5],> 200
Cc1cc(SC2=C(O)O[C@](CCc3ccc(O)cc3)(C(C)C)CC2=O)c(C(C)(C)C)cc1N (stereo in doubt; 15S),AUC,[10],138 µM·h
same,Therapeutic index,[6],422
same,Cmax,[11],71 µM
same,half-life,[12],1.7 h
same,EC90,[13],1 µM
same,EC50,[2]; ccrf-cem,0.5 µM
same,Cmax,[14],21.7 µM
same,bioavailability,[15],100%
same,AUC,[16],30 µM·h
same,bioavailability,[17],56%
same,Ki,[7],0.07 nM
same,Hours above EC90,[18],4
same,CC50,[4],211 µM
same,half-life,[19],1.2 h
same,Hours above EC90,[20],8.5
Cc1cc(SC2=C(O)OC(CCc3ccc(O)cc3)(C(C)C)CC2=O)c(C(C)(C)C)cc1N (stereo not given),selectivity ratio,[1],92
same,Hours above EC90,[21],3.2
same,bioavailability,[22],59.2%
same,EC50,[2]; [27],1 µM
same,IC50,[3],0.0027 µM
same,AUC,[23],44.8 µM·h
same,half-life,[24],2.1 h
same,Ki,[7],0.67 nM
same,CC50,[4],92 µM
same,Cmax,[25],21 µM
same,EC90,[26],3.5 µM
Cc1cc(SC2=C(O)OC(C)(CCc3ccc(O)cc3)CC2=O)c(C(C)(C)C)cc1O (stereo not given),selectivity ratio,[1],< 1
same,EC50,[2]; [27],> 7 µM
same,CC50,[4],7 µM
Cc1cc(SC2=C(O)OC(C)(CCc3ccc(O)cc3)CC2=O)c(C(C)(C)C)cc1N (stereo not given),selectivity ratio,[1],7
same,EC50,[2]; [27],9.4 µM
same,IC50,[3],0.0096 µM
same,CC50,[4],66 µM
Cc1cc(SC2=C(O)OC(CCc3ccc(O)cc3)(C(C)C)CC2=O)c(C(C)(C)C)cc1NC(=O)c1ccccc1 (stereo not given),selectivity ratio,[1],12
same,EC50,[2]; [27],5.4 µM
same,IC50,[3],0.0132 µM
same,CC50,[4],66 µM
CCCCC1(CCc2ccc(O)cc2)CC(=O)C(Sc2cc(C)c(N)cc2C(C)(C)C)=C(O)O1 (stereo not given),selectivity ratio,[1],7
same,EC50,[2]; [27],3.7 µM
same,IC50,[3],0.0044 µM
same,CC50,[4],25 µM
